In one data set the target is G-protein. Nature of the data set: functional [35S]GTPγS binding, rat brain membrane homogenates. The class given is biochemical. Here is the method: Rats and guinea pigs were decapitated, and their brains were quickly removed. The brains were used for membrane preparation following the procedure reported by Benyhe for binding and [^35S]GTPγS binding experiments, in agreement with the protocol of Zádor et al..
Homogenization of brains was performed in 30 volumes (v/w) of ice-cold 50 mM Tris-HCl pH 7.4 buffer with a Teflon-glass Braun homogenizer at 1500 rpm. The centrifuge was settled at 18,000 rpm for 20 min at 4 °C, the resulting supernatant discarded, and the pellet taken up in the original volume of Tris-HCl buffer. Incubation of homogenate at 37 °C for 30 min was performed in a shaking water-bath. Five volumes of 50 mM Tris-HCl pH 7.4 buffer were used to suspend the final pellet at −80 °C. For the [^35S]GTPγS binding experiments, the brains were homogenized with a Dounce in 5 volumes (v/w) of ice-cold TEM (Tris-HCl, EGTA, MgCl2) at −80 °C. The protein content of the membrane preparation was determined by the method of Bradford, BSA being used as a standard.
The functional [^35S]GTPγS binding experiments were performed as previously described. Briefly the membrane homogenates were incubated at 30 °C for 60 min in Tris-EGTA buffer (pH 7.4) composed of 50 mM Tris-HCl, 1 mM EGTA, 3 mM MgCl2, 100 mM NaCl, containing 20 MBq/0.05 cm^3 [^35S]GTPγS (0.05 nM) and increasing concentrations (10^−10 to 10^−5 M) of ligands. The experiments were performed in the presence of excess GDP (30 μM) in a final volume of 1 mL. Total binding was measured in the absence of test compounds, non-specific binding was determined in the presence of 10 μM unlabeled GTPγS. The reaction was terminated by rapid filtration under vacuum and washed three times with 5 mL ice-cold 50 mM Tris-HCl (pH 7.4) buffer through Whatman GF/B glass fibers. The radioactivity of the filters was detected in an UltimaGold^TM MV aqueous scintillation cocktail with a Packard Tricarb 2300TR liquid scintillation counter.
Experimental data are presented as means ± S.E.M. Sigmoid dose-response curves were fitted with GraphPad Prism 5.0 (GraphPad Prism Software Inc., San Diego, CA, USA). An unpaired t-test with two-tailed p value was performed to determine the significance level. In the competition binding assays, the ‘One site competition’ fitting was used to establish the equilibrium binding affinity (Ki value).
[35S]GTPγS binding assay in rat brain membrane homogenates. Figure S2 represents the specific binding of [35S]GTPγS in percentage in presence of increasing concentrations (10-10 - 10^-5 M) of the indicated ligands. “Total” on the x-axis indicates the basal activity of the monitored G-protein, which is measured in the absence of the ligands and represents the total specific binding of [35S]GTPγS. The level of basal activity was defined as 100% and it is presented with a dotted line. Points represent means ± S.E.M. for at least three experiments […]
Figure S3. The effect of novel oligopeptides on G-protein activity in [35S]GTPγS binding assays in the absence or presence of the selective MOR antagonist cyprodime (Cyp) and the selective DOR antagonist naltrindole (NTI) in rat brain membrane homogenates (Figure A) and the selective KOR antagonist norbinaltorphine (nor-BNI) in guinea pig brain membrane homogenates (Figure B). The level of basal activity was defined as 100% and it is presented with a dotted line. Points represent means ± S.E.M. for at least three experiments performed
A general note: GTPγS is a poorly hydrolysed GTP analogue; its binding reports G protein activation.

The nature of data set [1]: stability in human plasma. Type of data set: in vitro ADME. Conditions: 37 °C. The method, then:
Five microliters of K6 (500 μg in 250 μL of water) were added to 45 μL of fresh human plasma, then incubated at 37 ± 1 °C. Prepared samples were removed at several designated time points and incubation was stopped by adding an equal volume of the sequencing mixture (5% aqueous ZnSO4 solution, MeOH, and ACN; 5:3:2), which precipitated proteins, to achieve a final concentration of 100 μg/mL. The mixture was vortexed and centrifuged at 12,000× g for 5 min, then 20 μL of clear supernatant was directly injected into the HPLC system (Waters model 600 solvent pump and 2996 photodiode array detector, with XBridge BEH 130 C18, 4.6 × 250 mm, 5 μm). The samples were tested in three independents experiments (n = 3) and reported values represent the mean ± standard error (SEM). Data were analysed using simple regression analysis (significant deviation from zero: F1,13 = 171.9, p < 0.0001; Y = −0.9705 × X + 95.98).
Five calibration standards were injected into the HPLC-UV/Vis system. HPLC analyses were performed on a Waters liquid chromatograph equipped with a model 600 solvent pump and a 2996 photodiode array detector, and the mobile phase was degassed directly on-line by using Degassex, mod. DG-4400 (Phenomenex, Torrance, CA, USA). Empower v2.0 Software (Waters Spa, Milford, MA, USA) was used for data acquisition and elaboration. A reversed-phase packing column (XBridge BEH 130 C18, 4.6 × 250 mm, 5 μm; Waters Spa, Milford, MA, USA) was employed for the separation and the column was held at room temperature (22 ± 1 °C). K6 remaining concentrations at different times are reported below. For quantitative analyses, selective detection was performed at 210 nm. Gradient elution mode was performed using a mobile phase containing a […] water-ACN ratio as starting conditions and gradient program as reported. […]
All the sample solutions were previously centrifuged and 20 µL of the supernatant was injected into the HPLC-UV/Vis system. Calibration curves from 2 to 10 μg/mL were calculated by analyzing five non-zero concentration standards prepared in freshly spiked plasma solution in triplicate and extracted. All quantitative analyses were performed at 210 nm. Calibration curves were linear with r2 values always greater than 0.988 (n = 3). In reported chromatographic conditions, the retention times for K6 was 16.45 minutes (± 0.4, n = 20), the substance identity was confirmed by LS-MS analysis.
Time ( minutes) K6 Concentration (µg/mL) K6% of degradation

Experimental findings from PMC7072329, “Discovery of Kynurenines Containing Oligopeptides as Potent Opioid Receptor Agonists” (Biomolecules, 2020) are described below.

Molecules are shown by their SMILES. Several values for one entry are separate records, joined by “and”; a condition that tells them apart may be missing. Identical values can stand only once. Where a SMILES comes first, the peptide text is derived from it. [ ]: non-standard residue; d: D form. Kyn = Nc1ccccc1C(=O)C[C@H](N)C(=O)O

For `C[C@@H](NC(=O)[C@@H](N)Cc1ccc(O)cc1)C(=O)NCC(=O)N[C@@H](Cc1ccccc1)C(=O)N[C@@H](CC(=O)c1ccccc1N)C(N)=O` [Peptide K6] (H-Y[dA]GF[Kyn]-NH2), on G-protein (dose-response curves), the “Potency Log EC50 ± S.E.M.” value is reported as −5.984 ± 0.054. Moreover, in the data set with G-protein (dose-response curves, basal = 100%), the “Maximal Stimulation (Efficacy) Emax ± S.E.M.” value came out at 209.7 ± 3.4%. In the data set with G-protein (ligand alone, bar graphs Figure S3), the “Emax + S.E.M., Ligand” value is 211% and 211.7 ± 3.1%. In data set [1] (0 minutes), this compound displayed a K6% of degradation of 0%. Also, in data set [1] (fresh human plasma, 5 minutes, read-out: K6% of degradation), the metabolised at 5 min, 200 μg/mL is 7%. Also, the metabolised at 10 min, 200 μg/mL in data set [1] (fresh human plasma, 10 minutes, read-out: K6% of degradation) came out at 15%. Further, the metabolised at 0.5 h, 200 μg/mL in data set [1] (fresh human plasma, 30 minutes, read-out: K6% of degradation) was found to be 36%. Also, the metabolised at 1 h, 200 μg/mL in data set [1] (fresh human plasma, 60 minutes, read-out: K6% of degradation) worked out at 56%. For the same compound, the half-life at 200 μg/mL in data set [1] (plasma (fresh), linear regression, read-out: t1/2 in human plasma) is 47 min.
